Literature values as cited in patent US9532941B2, “Method for treatment of hair loss with a combination of natural ingredients” (priority 2011, dated 2017).

Tests used:
human hair = conditions: in vitro exposure; cell proliferation markers
human 5-α-reductase = conditions: cell free assay in vitro

## Cn1c(=O)c2c(ncn2C)n(C)c1=O [caffeine]
Human hair follicles; caffeine 0.001% and 0.005%, 5 mg/ml testosterone
  counteraction of testosterone-induced growth suppression: counteracted
Human hair follicles; caffeine alone
  hair follicle growth, caffeine alone: significant stimulation of hair follicle growth

## C[C@]12CC[C@H]3[C@@H](CCC4=CC(=O)CC[C@@]43C)[C@@H]1CC[C@@H]2O [testosterone]
Human hair follicles; hair follicles treated with 5 mg/ml testosterone
  growth of hair follicles: Significant growth suppression

## epigallocatechin-3-gallate [EGCG]
Human hair
  human hair growth: stimulates human hair growth
Human 5-α-reductase
  inhibition of human 5-α-reductase, cell free: potently inhibited
